Test results from article PMC11195807, “Development of a multi-targeted chemotherapeutic approach based on G-quadruplex stabilisation and carbonic anhydrase inhibition” (Journal of Enzyme Inhibition and Medicinal Chemistry, 2024).

These compounds were tested on GQ structures (assay: BG4 immunofluorescence of GQ foci, HeLa cells in normoxia). Conditions: 24 h, 35.0 µM S-4,0, 40.0 µM C-4,2, 37.5 µM C-5,2, 2 µM RHPS4, over DMSO.
Assay type: cell-based
Description: After measuring the viability of HeLa cells upon treatment with the newly synthesised MTDLs mentioned above, we probed the capability of the three most cytotoxic ones (S-4,0, C-4,2, and C-5,2) to affect the formation of GQ structures by immunofluorescence (IF) microscopy, using the BG4 antibody that selectively recognises the GQ structures. As it can be noticed in Figure 6, the fluorescence intensity of the total number of GQ foci increased by around 30% after treatment with both the coumarin derivative C-4,2 and the reference GQ binder RHPS4, whereas it was not affected by S-4,0 and C-5,2. […] On the contrary, the levels of GQ structures were influenced neither by the treatment with the sulphonamide S-4,0 nor by the coumarin C-5,2, despite their ability to thermally stabilise some GQ-forming sequences in vitro.
Figure 6. (A) Representative fields showing G4 foci formation detected by immunofluorescence in HeLa cells treated for 24 h with 35.0 µM S-4,0, 40.0 µM C-4,2, and 37.5 µM C-5,2 or an equivalent amount of vehicle (0.1% DMSO). As a positive control, cells were treated with 2 µM RHPS4 (a well-established GQ ligand)[68] for 24 h. Scale bar: 10 µm. Upper panels: the merged channels of BG4-stained GQ structures (magenta) and Hoechst-counterstained nuclei (grey) are reported. Lower panels: enlargements from the pictures in the upper panels. (B) Quantitative analysis of the fluorescence intensity of the total number of GQ foci. An average of 50 cells were screened for each condition and the results are expressed as a fold change of fluorescence intensity (anti-GQ signal) over the negative control (DMSO). Histograms show the mean ± SD of three independent experiments. The statistical significance was calculated using a one-way ANOVA test on GraphPad Prism 8.0.2 (ns: not significant, **: p < 0.01).
For the IF experiments in the presence of normal oxygen levels, HeLa cells were seeded on sterile coverslips, in a 24-well plate, at a density of 90,000 cells per well, and incubated overnight. Then, cells were treated with a sublethal concentration of each investigated MTDL or an equivalent amount of vehicle (0.1% DMSO), for 24 h. As positive control, cells were exposed for 24 h to 2 µM RHPS4. As regards the IF experiments under hypoxic conditions, HeLa were seeded on sterile coverslips, in a 24-well plate, at a density of 50,000 cells per well, and incubated overnight. […] From there, the cellular and nuclear foci were segmented, and their number or fluorescence intensity was quantified by using the Image Analysis package of ZEISS ZEN 3.1 software.

| SMILES | increase of fluorescence intensity of the total number of GQ foci |
| --- | --- |
| COc1ccc2cc3[n+](cc2c1OCCCCn1cc(-c2ccc(S(N)(=O)=O)cc2)nn1)CCc1cc2c(cc1-3)OCO2 [Compound 30, 10-Methoxy-9–(4–(4-(4-sulfamoylphenyl)-1H-1,2,3-triazol-1-yl)butoxy)-5,6-dihydro-[1,3]dioxolo[4,5-g]isoquinolino[3,2-a]isoquinolin-7-ium hexafluorophosphate] | not affected |
| COc1ccc2cc3[n+](cc2c1OCCCCn1cc(COc2ccc4ccc(=O)oc4c2)nn1)CCc1cc2c(cc1-3)OCO2 [Compound 37, 10-Methoxy-9–(4-(4-(((2-oxo-2H-chromen-7-yl)oxy)methyl)-1H-1,2,3-triazol-1-yl)butoxy)-5,6-dihydro-[1,3]dioxolo[4,5-g]isoquinolino[3,2-a]isoquinolin-7-ium hexafluorophosphate] | around 30% |
| COc1ccc2cc3[n+](cc2c1OCCCCCn1cc(COc2ccc4ccc(=O)oc4c2)nn1)CCc1cc2c(cc1-3)OCO2 [Compound 39, 10-Methoxy-9-((5–(4-(((2-oxo-2H-chromen-7-yl)oxy)methyl)-1H-1,2,3-triazol-1-yl)pentyl)oxy)-5,6-dihydro-[1,3]dioxolo[4,5-g]isoquinolino[3,2-a]isoquinolin-7-ium hexafluorophosphate] | not affected |
